This passage reports TGI results from PubChem BioAssay (NCI).

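Grown in 96-well plates, cells were treated for 48 hours with each compound at five concentrations. Insufficient inhibition: endpoint recorded as highest concentration tested. TGI: concentration producing complete growth inhibition.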

Test systems include BT-549 breast; COLO 205 colon; EKVX NSCLC; HCC-2998 colon; HS 578T breast; IGROV1 ovarian; K-562 leukemia; MALME-3M melanoma; MCF7 breast; MDA-MB-231 breast; MOLT-4 leukemia; NCI/ADR-RES ovarian; OVCAR-4 ovarian; RPMI-8226 leukemia; RXF 393 renal; SK-MEL-2 melanoma; SNB-75 CNS; UACC-257 melanoma; NCI-H460 lung; HL-60(TB) leukemia.
Common to all, as to test: growth of human tumour cells (NCI), 48 h

As for `CCN(CC)CCC(=O)c1ccc(Oc2ccc(C)cc2)cc1`, the TGI in the experiment with BT-549 breast is 32.7 µM; in the experiment with COLO 205 colon, 45.1 µM; in the experiment on EKVX NSCLC, 38.2 µM; in the experiment with HCC-2998 colon, 36.2 µM; in the experiment on HS 578T breast, 44.6 µM; with IGROV1 ovarian, 35.7 µM. Moreover, the TGI was greater than 100 µM in the experiment with K-562 leukemia; 33.7 µM in the experiment on MALME-3M melanoma; 32.9 µM in the experiment with MCF7 breast; 31 µM in the experiment with MDA-MB-231 breast; 60.7 µM with MOLT-4 leukemia; 51.2 µM in the experiment on NCI/ADR-RES ovarian. For the same molecule, the TGI with OVCAR-4 ovarian is 55.3 µM; with RPMI-8226 leukemia, 65.9 µM; with RXF 393 renal it was 30.2 µM; in the experiment with SK-MEL-2 melanoma, greater than 100 µM; in the experiment on SNB-75 CNS it was 35.7 µM; in the experiment on UACC-257 melanoma, 34.4 µM.

As for `CN(C)S(=O)(=O)n1ccnc1`, the TGI in the experiment with BT-549 breast, in the experiment with COLO 205 colon, with EKVX NSCLC, in the experiment with HCC-2998 colon, in the experiment on IGROV1 ovarian and with K-562 leukemia was greater than 100 µM throughout. Moreover, the TGI with MALME-3M melanoma, in the experiment with MCF7 breast, with MDA-MB-231 breast, in the experiment on MOLT-4 leukemia, in the experiment with NCI-H460 lung and in the experiment with NCI/ADR-RES ovarian was greater than 100 µM in each case. For the same molecule, the TGI in the experiment with OVCAR-4 ovarian, in the experiment on RPMI-8226 leukemia, in the experiment on RXF 393 renal, in the experiment on SK-MEL-2 melanoma, in the experiment on SNB-75 CNS and in the experiment with UACC-257 melanoma was greater than 100 µM in each case.

Turning to `COC(=O)C1=C(O)C(C(=O)OC)[C@]2(O)[C@H](C(=O)OC)[C@H]1C[C@@H](c1ccccc1OC)[C@H]2C(=O)OC` (some centres not stated), the TGI was 11.2 µM with BT-549 breast; 13.3 µM in the experiment with COLO 205 colon; 29.6 µM in the experiment with EKVX NSCLC; 22.2 µM with HCC-2998 colon; 10.5 µM with HL-60(TB) leukemia; 11 µM with HS 578T breast. Besides, the TGI in the experiment on IGROV1 ovarian was 11.3 µM; in the experiment on K-562 leukemia it was greater than 38.9 µM; in the experiment with MALME-3M melanoma, 13.5 µM; in the experiment with MDA-MB-231 breast, 29.7 µM; in the experiment with MOLT-4 leukemia, 25.5 µM; in the experiment with NCI-H460 lung it was greater than 41.8 µM. Further, the TGI was 8.89 µM with NCI/ADR-RES ovarian; 31.3 µM with OVCAR-4 ovarian; 8.82 µM in the experiment on RPMI-8226 leukemia; 20.2 µM in the experiment with RXF 393 renal; 20.1 µM in the experiment with SK-MEL-2 melanoma; greater than 71.3 µM in the experiment with SNB-75 CNS. Also, in the experiment on UACC-257 melanoma, the TGI was greater than 51.6 µM.

On to `COc1cc(S(=O)(=O)N/N=C/C=C/c2ccccc2)c(OC)cc1NC(C)=O`, for which the TGI is greater than 100 µM in the experiment on BT-549 breast; 45.8 µM in the experiment with COLO 205 colon; greater than 100 µM in the experiment on EKVX NSCLC; greater than 100 µM in the experiment with HL-60(TB) leukemia; greater than 100 µM in the experiment on HS 578T breast; greater than 100 µM in the experiment on IGROV1 ovarian. Further, the TGI in the experiment with MALME-3M melanoma was greater than 100 µM; in the experiment with MCF7 breast, greater than 100 µM; in the experiment with NCI/ADR-RES ovarian, greater than 100 µM; with OVCAR-4 ovarian it was greater than 100 µM; with RPMI-8226 leukemia, 60.9 µM; in the experiment on RXF 393 renal, greater than 100 µM. Also, the TGI in the experiment with SK-MEL-2 melanoma, in the experiment with SNB-75 CNS and in the experiment with UACC-257 melanoma was greater than 100 µM throughout.

For the molecule `Nc1sccc1S(=O)(=O)c1ccsc1N`, the TGI with BT-549 breast, in the experiment with COLO 205 colon, with EKVX NSCLC, in the experiment with HCC-2998 colon, in the experiment on HS 578T breast and in the experiment with IGROV1 ovarian was greater than 100 µM throughout. For the same molecule, the TGI with MALME-3M melanoma, with MCF7 breast, in the experiment on MDA-MB-231 breast, with MOLT-4 leukemia, in the experiment with NCI-H460 lung and in the experiment on NCI/ADR-RES ovarian was greater than 100 µM each time. Also, the TGI in the experiment with OVCAR-4 ovarian, in the experiment on RPMI-8226 leukemia, in the experiment on SK-MEL-2 melanoma, with SNB-75 CNS and with UACC-257 melanoma was greater than 100 µM each time.

For `Cn1ccnc1SC(F)(F)c1nc2ccccc2o1`, the TGI with BT-549 breast, in the experiment with COLO 205 colon, in the experiment on HCC-2998 colon, in the experiment on HS 578T breast, with IGROV1 ovarian and in the experiment on K-562 leukemia was greater than 100 µM throughout. In addition, the TGI in the experiment with MALME-3M melanoma, in the experiment with MCF7 breast, in the experiment on MDA-MB-231 breast, in the experiment on MOLT-4 leukemia, in the experiment on NCI-H460 lung and in the experiment on NCI/ADR-RES ovarian was greater than 100 µM in each case. In addition, the TGI with OVCAR-4 ovarian, in the experiment with RPMI-8226 leukemia, with RXF 393 renal, in the experiment with SK-MEL-2 melanoma, with SNB-75 CNS and in the experiment with UACC-257 melanoma was greater than 100 µM each time.

Turning to `Nn1c(-c2ccccc2Nc2ccccc2-c2n[nH]c(=S)n2N)n[nH]c1=S`, the TGI with BT-549 breast, with COLO 205 colon, in the experiment on EKVX NSCLC, in the experiment with HCC-2998 colon, in the experiment on HL-60(TB) leukemia and with IGROV1 ovarian was greater than 50 µM throughout. Further, the TGI in the experiment with K-562 leukemia, with MALME-3M melanoma, in the experiment on MCF7 breast, with MOLT-4 leukemia, with NCI-H460 lung and in the experiment with NCI/ADR-RES ovarian was greater than 50 µM in each case. Further, the TGI in the experiment with OVCAR-4 ovarian, in the experiment with RPMI-8226 leukemia, in the experiment on RXF 393 renal, with SK-MEL-2 melanoma, with SNB-75 CNS and in the experiment with UACC-257 melanoma was greater than 50 µM throughout.

For `CCC(C)[C@H]1C(=O)N=C(N)N1C(=O)OCc1ccccc1` (some centres not stated), the TGI in the experiment with BT-549 breast, in the experiment on COLO 205 colon, in the experiment on EKVX NSCLC, with HCC-2998 colon, with HL-60(TB) leukemia and with IGROV1 ovarian was greater than 100 µM throughout. For the same molecule, the TGI with K-562 leukemia, with MALME-3M melanoma, in the experiment with MCF7 breast, in the experiment on MDA-MB-231 breast, with MOLT-4 leukemia and in the experiment with NCI-H460 lung was greater than 100 µM throughout. The TGI in the experiment with NCI/ADR-RES ovarian, in the experiment on OVCAR-4 ovarian, in the experiment with RPMI-8226 leukemia, in the experiment with RXF 393 renal, with SK-MEL-2 melanoma and in the experiment on SNB-75 CNS was greater than 100 µM each time. In the experiment on UACC-257 melanoma, this molecule showed a TGI greater than 100 µM.
